# Reference: patent publication US20190381017A1, “Compositions Comprising Serdexmethylphenidate Conjugates And Methods Of Use Thereof” (KemPharm, Inc., priority 2018, published 2019)
# Values joined by “and” are separate entries in the source; they are usually repeats but may differ in a detail not shown here. Equal values may be shown once. Where a name gives a salt, the structure may show the parent alone.
# Assays:
# [1] = test system: healthy, nondependent, recreational stimulant users with intranasal insufflation experience; experiment: Intranasal abuse potential, VAS pharmacodynamic scores (Example 5); type: in vivo, human
# Protocol: Subjects who successfully completed the Screening Period returned to the clinic to complete the Drug Discrimination Phase. The Drug Discrimination Test was performed to ensure that subjects can differentiate between the effects of a single dose of d-methylphenidate hydrochloride and placebo, administered intranasally. Subjects who successfully completed the Drug Discrimination Phase remained as inpatients to enter the Treatment Phase. The Drug Discrimination Phase was a double-blind, intranasal, single-dose, 2-treatment, 2-period, 2-sequence, randomized, crossover design.
# The placebo dose consisted of 80 mg of microcrystalline cellulose to create the same volume.
# On dosing days in the Treatment Phase, blood samples were collected for the measurement of the plasma concentrations of SDX, d-methylphenidate (d-MPH), l-methylphenidate (l-MPH) and ritalinic acid at predose and at 0.25, 0.5, 0.75, 1, 1.5, 2, 3, 4, 5, 6, 7, 8, 9, 10, 12, 16, 24, 36, and 48 hours±5 minutes after each dose of study drug. […] All VAS pharmacodynamic assessments except Take Drug Again and Overall Drug Liking were performed at 0.25, 0.5, 0.75, 1, 1.5, 2, 3, 4, 5, 6, 7, 8, 10, 12, 24 hours±5 minutes postdose. In addition, predose assessments of Feeling High, and Drowsiness/Alertness were collected. The Take Drug Again and Overall Drug Liking VAS assessments were performed at 12 and 24 hours±5 minutes postdose.
# [2] = test system: healthy, nondependent, recreational stimulant users with intranasal insufflation experience; experiment: Treatment-emergent adverse events, intranasal study (Example 5, Table 54)
# Protocol: The study consisted of a Screening Period, an in-clinic Drug Discrimination Phase, a Treatment Phase, and a Follow-Up Visit.
# All subjects were required to fast for at least 8 hours prior to each dose of study drug until approximately 4 hours after each dose. Abuse potential measures and pharmacokinetic samples were collected at different times after the administration of study drug. Subjects who successfully completed the Drug Discrimination Phase and who qualified for the Treatment Phase remained as inpatients to enter the Treatment Phase.
# [3] = test system: recreational stimulant users; experiment: Treatment-emergent adverse events, intravenous study (Example 2); conditions: SDX Cl 30 mg (N=31), d-MPH HCl 15 mg (N=30)
# Protocol: A study was conducted in humans to assess the intravenous abuse potential of serdexmethylphenidate relative to unconjugated d-methylphenidate and placebo in recreational stimulant abusers. This was a Phase 1, randomized, double-blind study in which serdexmethylphenidate and d-methylphenidate were administered intravenously in recreational stimulant users with a history of non-oral abuse. In Part A of the study, subjects (Cohort 1) participated in a dose-escalation phase to determine the optimal dose of intravenous d-methylphenidate based on tolerability and abuse-related pharmacodynamic assessments. […] The doses of serdexmethylphenidate and d-methylphenidate are equivalent with respect to molar amount of d-methylphenidate. FDA-recommended abuse potential measures and blood samples were collected at different times after dosing. Safety assessments were performed throughout the study.
# [4] = SDX Cl 80 mg, d-MPH HCl 40 mg, 12 hours, bipolar VAS
# [5] = SDX Cl 80 mg, d-MPH HCl 40 mg, 24 hours, bipolar VAS
# [6] = SDX Cl 80 mg, d-MPH HCl 40 mg, bipolar VAS
# [7] = SDX Cl 80 mg, d-MPH HCl 40 mg, unipolar VAS
# [8] = d-MPH HCl 40 mg vs SDX Cl 80 mg
# [9] = d-MPH HCl 40 mg (N = 46), SDX Cl 80 mg (N = 46)
structure (smiles),measurement,setting,value
"COC(=O)[C@H](c1ccccc1)[C@H]1CCCCN1 [d-methylphenidate hydrochloride, d-threo-methylphenidate hydrochloride]",Mean difference Any Effect Emax vs placebo,"[1]; SDX Cl 80 mg, d-MPH HCl 40 mg",88.6
same,Mean difference Ease of Nasal Insufflation Emax vs placebo,"[1]; SDX Cl 80 mg, d-MPH HCl 40 mg",11.3
same,Mean difference Feeling Drowsy/Alert Emax vs placebo,"[1]; SDX Cl 80 mg, d-MPH HCl 40 mg",42.3
same,Mean difference Feeling High Emax vs placebo,"[1]; SDX Cl 80 mg, d-MPH HCl 40 mg",85.2
same,Mean difference Good Effects Emax vs placebo,"[1]; SDX Cl 80 mg, d-MPH HCl 40 mg",90.0
same,"Mean difference Overall Drug Liking vs placebo, 24 hours","[1]; SDX Cl 80 mg, d-MPH HCl 40 mg",26.1
same,"Mean difference Take Drug Again vs placebo, 12 hours","[1]; SDX Cl 80 mg, d-MPH HCl 40 mg",29.1
same,"Mean difference Take Drug Again vs placebo, 24 hours","[1]; SDX Cl 80 mg, d-MPH HCl 40 mg",28.3
same,"Mean difference Take Drug Again vs placebo, Emax","[1]; SDX Cl 80 mg, d-MPH HCl 40 mg",31.1
same,Median difference Bad Effects Emax vs placebo,"[1]; SDX Cl 80 mg, d-MPH HCl 40 mg",10.5
same,Mean Overall Drug Liking,[1]; [4],79.6
same,Mean Take Drug Again,[1]; [4],78.2
same,Median Overall Drug Liking,[1]; [4],87
same,Median Take Drug Again,[1]; [4],91
same,Mean Overall Drug Liking,[1]; [5],76.3
same,Mean Take Drug Again,[1]; [5],77.4
same,Median Overall Drug Liking,[1]; [5],82
same,Median Take Drug Again,[1]; [5],94
same,Drug Liking Emax (median),[1]; [6],100
same,Feeling Drowsy/Alert Emax (mean),[1]; [6],93.4
same,Feeling Drowsy/Alert Emax (median),[1]; [6],100
same,Overall Drug Liking Emax (mean),[1]; [6],81.0
same,Overall Drug Liking Emax (median),[1]; [6],90
same,Take Drug Again Emax (mean),[1]; [6],80.3
same,Take Drug Again Emax (median),[1]; [6],95
same,Drug Liking Emax (mean),"[1]; SDX Cl 80 mg, d-MPH HCl 40 mg, bipolar VAS, hydrochloride",93 and 93.2
same,Any Effect Emax (mean),[1]; [7],89.2
same,Any Effect Emax (median),[1]; [7],100
same,Bad Effects Emax (mean),[1]; [7],18.6
same,Bad Effects Emax (median),[1]; [7],2
same,Ease of Nasal Insufflation (mean),[1]; [7],18.1
same,Ease of Nasal Insufflation (median),[1]; [7],7
same,Feeling High Emax (mean),[1]; [7],88.0
same,Feeling High Emax (median),[1]; [7],97
same,Good Effects Emax (mean),[1]; [7],90.6
same,Good Effects Emax (median),[1]; [7],97
same,Median difference Drug Liking Emax vs placebo,[1]; d-MPH HCl 40 mg,45
same,"Median difference Overall Drug Liking vs placebo, 12 hours",[1]; d-MPH HCl 40 mg,33.5
same,"Median difference Overall Drug Liking vs placebo, Emax",[1]; d-MPH HCl 40 mg,35
same,Mean difference Any Effect Emax,[1]; [8],39.8
same,Mean difference Drug Liking Emax,[1]; [8],22.3
same,Mean difference Ease of Nasal Insufflation Emax,[1]; [8],-47.7
same,Mean difference Feeling Drowsy/Alert Emax,[1]; [8],22.2
same,Mean difference Feeling High Emax,[1]; [8],44.5
same,Mean difference Good Effects Emax,[1]; [8],45.7
same,"Mean difference Overall Drug Liking, 12 hours",[1]; [8],19.2
same,"Mean difference Overall Drug Liking, 24 hours",[1]; [8],17.3
same,"Mean difference Overall Drug Liking, Emax",[1]; [8],19.3
same,"Mean difference Take Drug Again, 12 hours",[1]; [8],21.5
same,"Mean difference Take Drug Again, 24 hours",[1]; [8],21.5
same,"Mean difference Take Drug Again, Emax",[1]; [8],20.3
same,Median difference Bad Effects Emax,[1]; [8],0
same,TEAE: Abdominal distension,[2]; [9],0 n (%) [E]
same,TEAE: Agitation,[2]; [9],0 n (%) [E]
same,TEAE: Arthralgia,[2]; [9],0 n (%) [E]
same,TEAE: Catheter site haematoma,[2]; [9],0 n (%) [E]
same,TEAE: Catheter site swelling,[2]; [9],0 n (%) [E]
same,TEAE: Chest pain,[2]; [9],0 n (%) [E]
same,TEAE: Claustrophobia,[2]; [9],0 n (%) [E]
same,TEAE: Cough,[2]; [9],0 n (%) [E]
same,TEAE: Dizziness,[2]; [9],0 n (%) [E]
same,TEAE: Dysgeusia,[2]; [9],0 n (%) [E]
same,TEAE: Dyspepsia,[2]; [9],0 n (%) [E]
same,TEAE: Ecchymosis (skin discoloration),[2]; [9],0 n (%) [E]
same,TEAE: Epistaxis (nosebleed),[2]; [9],0 n (%) [E]
same,TEAE: Eye pain,[2]; [9],0 n (%) [E]
same,TEAE: Feeling of relaxation,[2]; [9],0 n (%) [E]
same,TEAE: Head discomfort,[2]; [9],0 n (%) [E]
same,TEAE: Infections and infestations,[2]; [9],0 n (%) [E]
same,TEAE: Irritability,[2]; [9],0 n (%) [E]
same,TEAE: Lacrimation increased,[2]; [9],0 n (%) [E]
same,TEAE: Nasal dryness,[2]; [9],0 n (%) [E]
same,TEAE: Pharyngitis,[2]; [9],0 n (%) [E]
same,TEAE: Phlebitis superficial,[2]; [9],0 n (%) [E]
same,TEAE: Pyrexia,[2]; [9],0 n (%) [E]
same,TEAE: Rhinorrhoea (runny nose),[2]; [9],0 n (%) [E]
same,TEAE: Sneezing,[2]; [9],0 n (%) [E]
same,TEAE: Upper-airway cough syndrome,[2]; [9],0 n (%) [E]
same,TEAE: Vomiting,[2]; [9],0 n (%) [E]
same,"typical stimulant-related adverse events (euphoric mood, hypervigilance, cardiac palpitations, tachycardia), frequency vs intranasal SDX Cl",[2]; [8],occurred more often
same,"TEAE Change in sustained attention, % of subjects",[3],(6.7) %
same,"TEAE Change in sustained attention, n subjects",[3],2
same,"TEAE Dry mouth, % of subjects",[3],(20.0) %
same,"TEAE Dry mouth, n subjects",[3],6
same,"TEAE Energy increased, % of subjects",[3],(3.3) %
same,"TEAE Energy increased, n subjects",[3],1
same,"TEAE Euphoric mood, % of subjects",[3],(56.7) %
same,"TEAE Euphoric mood, n subjects",[3],17
same,"TEAE Feeling abnormal, % of subjects",[3],(6.7) %
same,"TEAE Feeling abnormal, n subjects",[3],2
same,"TEAE Feeling hot, % of subjects",[3],(20.0) %
same,"TEAE Feeling hot, n subjects",[3],6
same,"TEAE Feeling jittery, % of subjects",[3],(6.7) %
same,"TEAE Feeling jittery, n subjects",[3],2
same,"TEAE Feeling of relaxation, % of subjects",[3],(3.3) %
same,"TEAE Feeling of relaxation, n subjects",[3],1
same,"TEAE Headache, % of subjects",[3],(3.3) %
same,"TEAE Headache, n subjects",[3],1
same,"TEAE Heart rate increased, % of subjects",[3],(16.7) %
same,"TEAE Heart rate increased, n subjects",[3],5
same,"TEAE Hyperhidrosis (sweaty hands), % of subjects",[3],(13.3) %
same,"TEAE Hyperhidrosis (sweaty hands), n subjects",[3],4
same,"TEAE Hypervigilance, % of subjects",[3],(33.3) %
same,"TEAE Hypervigilance, n subjects",[3],10
same,"TEAE Nausea, % of subjects",[3],(10.0) %
same,"TEAE Nausea, n subjects",[3],3
same,"TEAE Palpitations, % of subjects",[3],(6.7) %
same,"TEAE Palpitations, n subjects",[3],2
same,"TEAE Paraesthesia (tingling), % of subjects",[3],(6.7) %
same,"TEAE Paraesthesia (tingling), n subjects",[3],2
same,"TEAE Sinus tachycardia, % of subjects",[3],(13.3) %
same,"TEAE Sinus tachycardia, n subjects",[3],4
same,"TEAE Somnolence, % of subjects",[3],(13.3) %
same,"TEAE Somnolence, n subjects",[3],4
same,"TEAE Tachycardia, % of subjects",[3],(13.3) %
same,"TEAE Tachycardia, n subjects",[3],4
